Drawing on ChEMBL document CHEMBL5579877, “Design and Evaluation of 3-Phenyloxetane Derivative Agonists of the Glucagon-Like Peptide-1 Receptor” (J Med Chem, 2024), this text covers EC50 and half-life for 12 compounds.

For orientation: EC50 means the midpoint of the concentration-response curve. For orientation: half-life means how long it takes for the measured level to halve.

Glucagon-like peptide 1 receptor, sequence (P43220 whole entry): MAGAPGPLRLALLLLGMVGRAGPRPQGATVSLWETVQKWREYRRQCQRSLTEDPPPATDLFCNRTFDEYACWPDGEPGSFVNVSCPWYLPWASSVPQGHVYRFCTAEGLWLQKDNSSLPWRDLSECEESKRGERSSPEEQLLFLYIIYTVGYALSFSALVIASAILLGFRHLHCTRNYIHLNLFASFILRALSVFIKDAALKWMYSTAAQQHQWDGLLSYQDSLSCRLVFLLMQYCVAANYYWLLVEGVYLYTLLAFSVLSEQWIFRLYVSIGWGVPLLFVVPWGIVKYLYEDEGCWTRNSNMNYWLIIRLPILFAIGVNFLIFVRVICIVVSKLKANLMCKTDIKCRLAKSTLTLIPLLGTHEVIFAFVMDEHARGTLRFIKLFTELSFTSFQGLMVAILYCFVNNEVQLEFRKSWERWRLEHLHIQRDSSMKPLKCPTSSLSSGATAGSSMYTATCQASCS

The first data set has as its target Glucagon-like peptide 1 receptor (Homo sapiens, UniProt P43220). The data set is described as follows: Agonist activity at human GLP-1R expressed in HEK293 cells assessed as accumulation of cAMP preincubated for 30 mins followed by d2-labeled cAMP addition and anti-cAMP cryptate addition measured after 60 mins by HTRF assay. Format: functional, cell-based. A general note: In TR-FRET formats the signal depends on donor and acceptor labels being close together.
As to `O=C(O)c1ccc2nc(CN3CCC(c4cccc(OCc5ccc(C6(F)COC6)cc5)n4)CC3)n(C[C@@H]3CCO3)c2c1`, the concentration for a half-maximal effect (EC50) turned out to be 0.08 nM.
Same read-out and setting: with `O=C(O)c1ccc2nc(CN3CCC(c4cccc(OCc5ccc(C6COC6)cc5F)n4)CC3)n(CC3(F)CCC3)c2c1` the figure was 39 nM.
Still for that read-out and setting: for `CC(=O)c1ccc(COc2cccc(C3CCN(Cc4nc5ccc(C(=O)O)cc5n4C[C@@H]4CCO4)CC3)n2)c(F)c1` the value was 0.54 nM.
Still for that read-out and setting: for `CCC(=O)c1ccc(COc2cccc(C3CCN(Cc4nc5ccc(C(=O)O)cc5n4C[C@@H]4CCO4)CC3)n2)c(F)c1` the value was 0.95 nM; for `O=C(O)c1ccc2nc(CN3CCC(c4cccc(OCc5ccc(C6(O)COC6)cc5)n4)CC3)n(C[C@@H]3CCO3)c2c1`, 3.08 nM.
Take `CN1CCC(C(=O)c2ccc(COc3cccc(C4CCN(Cc5nc6ccc(C(=O)O)cc6n5C[C@@H]5CCO5)CC4)n3)c(F)c2)CC1`: the EC50 is above 1000 nM.
For the compound `O=C(O)c1ccc2nc(CN3CCC(c4cccc(OCc5ccc(C6COC6)cc5OCC(F)(F)F)n4)CC3)n(C[C@@H]3CCO3)c2c1`, the EC50 worked out at 2.8 nM.
`O=C(O)c1ccc2nc(CN3CCC(c4cccc(OCC5CCN(C6COC6)CC5)n4)CC3)n(C[C@@H]3CCO3)c2c1`: the EC50 was found to be 33.2 nM.
On the same count and under the same terms, for `N#CCC1(n2c(CC3CCC(c4cccc(OCc5ccc(C6COC6)cc5F)n4)CC3)nc3ccc(C(=O)O)cc32)CC1` (configuration not stated) the value was 0.08 nM.

Test system in another data set: not listed separately
The data set is described as follows: Metabolic stability in human liver microsomes assessed as half life at […] incubated upto 45 mins in presence of NADPH by LC-MS/MS analysis. The format is ADME, Microsome. (In general: Microsomes from liver hold many membrane-bound enzymes, among them those of drug oxidation.)
For the compound `O=C(O)c1ccc2nc(CN3CCC(c4cccc(OCc5ccc(C6COC6)cc5Cl)n4)CC3)n(C[C@@H]3CCO3)c2c1`, the half-life turned out to be 2.06 h.
Still for that read-out and setting: for `O=C(O)c1ccc2nc(CN3CCC(c4cccc(OCc5ccc(C6COC6)cn5)n4)CC3)n(C[C@@H]3CCO3)c2c1` the value was 0.717 h; for `COc1cc(C2COC2)ccc1COc1cccc(C2CCN(Cc3nc4ccc(C(=O)O)cc4n3C[C@@H]3CCO3)CC2)n1`, 2.56 h.
